Results: patent US20200407700A1, “COMPOSITIONS OF PARP14 MODULATORS AND/OR MUTANTS AND THERAPEUTIC USE THEREOF” (President and Fellows of Harvard College, priority 2018, published 2020)
“Also recorded” adds a separate entry of the source.

Tests used:
[1] = tested on: bone marrow derived macrophages (BMDMs); test: NAD^+ levels in LPS-treated bone marrow derived macrophages (enzyme-coupled luciferase assay); assay type: cell-based, mouse; conditions: for LPS-induced drop in NAD^+ levels / protection of NAD^+ levels in macrophages exposed to LPS: BMDMs; for LPS-induced drop in NAD^+ levels: 6 hours of treatment, in the presence of LPS
Excerpt: FIG. 2 contains 13 panels, 2A-2M, depicting that PARP14 is necessary for LPS-induced NAD^+ destruction. FIG. 2A-2C show NAD^+ levels in response to LPS in wild-type or (FIG. 2A) CD38KO, (FIG. 2B) SARM1KO, and (FIG. 2C) PARP1KO BMDMs. […] FIGS. 2K and 2L show NAD^+ (2K) and NADH levels (2L) in PARP14KO BMDMs.
FIG. 3 contains 6 panels, 3A-3F, depicting PARP14 catalytic mechanism. […] FIG. 3E depicts NAD^+ levels after treatment with NSC-61610. FIG. 3F depicts NAD^+ levels after treatment with NSC-127133 and LPS.
NAD^+ levels rapidly decline upon LPS-activation in bone marrow derived macrophages (BMDMs). […] NAD^+ and NADH levels recover after about 24 hours (FIG. 1A-1B). […] Using a genetically-encoded fluorescent reporter in RAW264.7 immortalized macrophages (FIG. 1C), it was confirmed that these changes occur in all three major compartments of the cell. Mass spectrometry-based metabolomics in BMDMs were performed which confirmed that an increase in NAD^+ hydrolysis is driving the phenomenon (FIG. 1D-1E). Additional experiments using flux metabolomics in collaboration with Professor Marie Migaud at the University of South Alabama may be used in order to determine the rates of consumption and salvage of NAD^+, before and after treatment with LPS. In such experiments, isotopically-labeled NMN (an NAD^+ precursor) are synthesized with labels on the phosphate, ribose, and nicotinamide groups, which allows tracing of multiple downstream metabolites.

[2] = tested on: inflammasome (caspase-1 cleavage); test: Inflammasome activation measured by Caspase 1 cleavage (Casp-1 p20); assay type: cell-based; conditions: only somewhat reproducible
Excerpt: (§1) FIG. 4 contains 5 panels, 4A-4E, depicting that NAD^+ decline promotes inflammasome activation. FIG. 4A-4D show secretion of (FIG. 4A) IL-1β, (FIG. 4B) IL-18, (FIG. 4C) IL-6, and (FIG. 4D) TNF in response to LPS and nigericin, without and with NMN.
One hallmark of inflammasome activation is cleavage of caspase-1 to generate a 20 kD peptide.

[3] = tested on: poly-ADP-ribose (PAR) levels; test: Poly-ADP-ribose (PAR) levels in LPS-treated macrophages; assay type: cell-based; conditions: NAD+ repletion
Excerpt: NMN, which raises levels of NAD^+, can suppress secretion of IL-1β and IL-18. […] The most robust observation seen is a restoration of poly-ADP-ribose (PAR) levels (FIG. 11B). While this is clearly an effect of restoring NAD^+ levels, its significance on macrophage function is unclear. […] Inflammatory gene expression may be altered, but this must be repeated with an increased N-value (FIG. 11D-F).

[4] = tested on: BMDM; test: Polar metabolomics on BMDM extracts; assay type: cell-based, mouse
Experimental: (§2) Polar metabolomics on BMDM extracts treated with LPS, OUL35, and NRH were performed. […] Recently, Prof. Marcia Haigis (HMS) published that Sirt3, an NAD^+-sensor, regulates nucleotide metabolism (Gonzalez Herrera et al., 2018). While an increase in nucleotides could promote DNA synthesis, macrophages are reported to suppress the cell cycle in response to LPS. However, macrophages do upregulate reactive oxygen species (ROS) production for bactericidal purposes in response to LPS, and two purines—hypoxanthine and xanthine—are important for this ROS production via the enzyme xanthine oxidase (XO). With the hypothesis that macrophages increase these metabolites for increased ROS production in mind, PARPi and NRH suppress nigericin-induced ROS production, although this experiment must be repeated (FIG. 12O).

[5] = tested on: reactive oxygen species (ROS) production; test: Nigericin-induced ROS production in macrophages; assay type: cell-based; conditions: 30 min nigericin treatment; preliminary, must be repeated
Experimental: as §2

[6] = tested on: LPS induced sepsis; test: LPS-induced sepsis (I.P. injection of LPS); assay type: in vivo; conditions: mice
Experimental: One common assay to measure inflammation in vivo is with LPS induced sepsis, whereby LPS is injected intraperitoneally, resulting in a lethal cytokine storm. Drugs or mutations that suppress inflammation increase survival. Mice euthanized 6 hours after LPS injection show in increase in PARP14 levels in multiple tissues (FIG. 13A-D). NAD^+ levels fall in multiple tissues, and in at least in spleen, NAD^+ levels can be protected with a co-injection of PARPi and NRH (FIG. 13E).

[7] = tested on: elderly mice; conditions: cited from earlier work
[8] = tested on: spleen NAD+ levels; test: NAD^+ levels in aged spleens after I.P. injection; assay type: in vivo; conditions: 27 month old mice, 20 mg/kg intraperitoneally, 2 hours post-injection
Experimental: 27 month old mice were injected intraperitoneally with 20 mg/kg of OUL35 dissolved in PBS with 40% HP-beta-cyclodextrin and 1% carboxymethylcellulose. Spleens were collected 2 hours post-injection and assayed for NAD+ levels.

[9] = target: PARP1 (Homo sapiens, UniProt P09874); conditions: cited from earlier work
[10] = tested on: PARPs 4, 10, 14, and 16; conditions: cited from earlier work
[11] = tested on: secretion of IL-1β, IL-18, IL-6 and TNF; test: Cytokine secretion in response to LPS and nigericin; assay type: cell-based
Excerpt: as §1
IL-1β and IL-18 are unique cytokines in that they require activation of an inflammasome to be processed for release.

[12] = tested on: influenza; conditions: via a different mechanism; cited from earlier work

Sequence of PARP1 (P09874 whole entry, species assumed): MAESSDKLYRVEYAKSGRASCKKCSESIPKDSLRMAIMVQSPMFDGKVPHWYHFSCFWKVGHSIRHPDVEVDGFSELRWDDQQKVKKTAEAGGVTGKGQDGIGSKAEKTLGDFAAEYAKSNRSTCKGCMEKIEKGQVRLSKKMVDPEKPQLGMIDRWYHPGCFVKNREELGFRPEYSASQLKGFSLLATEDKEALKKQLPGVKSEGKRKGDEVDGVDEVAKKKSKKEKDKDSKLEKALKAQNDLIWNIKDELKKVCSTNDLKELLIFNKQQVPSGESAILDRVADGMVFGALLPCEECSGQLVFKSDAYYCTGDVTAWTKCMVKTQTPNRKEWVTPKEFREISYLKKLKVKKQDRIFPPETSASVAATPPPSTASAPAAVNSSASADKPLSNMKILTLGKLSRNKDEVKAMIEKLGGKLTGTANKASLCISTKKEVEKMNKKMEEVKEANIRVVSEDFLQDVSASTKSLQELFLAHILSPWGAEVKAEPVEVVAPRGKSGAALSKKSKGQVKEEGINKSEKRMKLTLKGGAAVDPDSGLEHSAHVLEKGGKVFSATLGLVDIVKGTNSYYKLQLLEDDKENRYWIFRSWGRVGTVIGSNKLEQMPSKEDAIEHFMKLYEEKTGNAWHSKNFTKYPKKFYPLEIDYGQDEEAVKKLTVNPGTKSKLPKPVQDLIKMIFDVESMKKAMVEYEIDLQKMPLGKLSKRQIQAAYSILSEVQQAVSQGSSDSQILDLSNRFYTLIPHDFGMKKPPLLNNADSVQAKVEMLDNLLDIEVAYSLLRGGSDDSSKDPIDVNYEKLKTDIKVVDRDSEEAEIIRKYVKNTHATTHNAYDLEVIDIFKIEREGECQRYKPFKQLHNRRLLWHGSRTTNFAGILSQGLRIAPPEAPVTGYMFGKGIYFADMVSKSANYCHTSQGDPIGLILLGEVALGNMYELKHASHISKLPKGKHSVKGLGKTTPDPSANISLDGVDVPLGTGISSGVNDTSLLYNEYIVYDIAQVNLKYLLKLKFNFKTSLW

O=C(O)c1ccccc1-c1ccccc1C(=O)Nc1ccc2c(c1)[nH]c(=O)c1ccccc12 [NSC-127133]
LPS-induced drop in NAD^+ levels [1]: able to block the fall | raise NAD^+ levels in activated macrophages, compared with NMN [1]: beyond NMN

NC(=O)C1=CN([C@@H]2O[C@H](CO)[C@@H](O)[C@H]2O)C=CC1 [NRH, Nicotinamide riboside hydride]
protection of NAD^+ levels in macrophages exposed to LPS [1]: protect; also recorded: more potent protectors | raising NAD^+ levels in BMDMs ([1]; absence and presence of LPS, after 6 hours): extremely potent | cleavage of caspase-1 (inflammasome activation) [2]: suppression of inflammasome activation | poly-ADP-ribose (PAR) levels [3]: restoration | metabolite changes induced by LPS [4]: blunt the changes induced by LPS | nigericin-induced ROS production [5]: suppress | NAD^+ levels in spleen ([6]; 6 hours after I.P. injection of LPS, co-injection): protected | survival ([6]; I.P. injection of LPS, vs LPS alone): moderately increased survival

NC(=O)c1cccc(N)c1 [3-aminobenzimide]
LPS-induced drop in NAD^+ levels [1]: completely blocked | raise NAD^+ levels in activated macrophages, compared with NMN [1]: beyond NMN

NC(=O)c1ccc[n+]([C@@H]2O[C@H](CO)[C@@H](O)[C@H]2O)c1 [NR, nicotinamide riboside]
metabolism and aspects of ageing [7]: improve metabolism and reverse aspects of ageing

CN(C)CC(=O)Nc1ccc2[nH]c(=O)c3ccccc3c2c1 [PJ-34]
LPS-induced drop in NAD^+ levels [1]: completely blocked | raise NAD^+ levels in activated macrophages, compared with NMN [1]: beyond NMN | cleavage of caspase-1 (inflammasome activation) [2]: suppress

NC(=O)c1ccc(Oc2ccc(C(N)=O)cc2)cc1 [OUL35]
LPS-induced drop in NAD^+ levels [1]: blocked the drop | raise NAD^+ levels in activated macrophages, compared with NMN [1]: beyond NMN | cleavage of caspase-1 (inflammasome activation) [2]: suppress | metabolite changes induced by LPS [4]: blunt the changes induced by LPS | NAD^+ levels in aged spleens [8]: raises NAD^+ levels | activity against PARP1 [9]: no activity | inhibition of PARPs 4, 10, 14, and 16 [10]: inhibitor

NC(=O)c1ccc[n+]([C@@H]2O[C@H](COP(=O)([O-])O)[C@@H](O)[C@H]2O)c1 [NMN, nicotinamide mononucleotide]
protection of NAD^+ levels in macrophages exposed to LPS [1]: slightly protect | secretion of IL-1β and IL-18 [11]: suppress | secretion of IL-6 or TNF [11]: not | metabolism and aspects of ageing [7]: improve metabolism and reverse aspects of ageing

CCOc1ccccc1Cl [NSC-61610]
LPS-induced drop in NAD^+ levels [1]: able to block the fall | raise NAD^+ levels in activated macrophages, compared with NMN [1]: beyond NMN | effect in a model of influenza [12]: anti-inflammatory
